# Reference: article PMC11099041, “Tissue distribution and retention drives efficacy of rapidly clearing VHL-based PROTACs” (Communications Medicine, 2024)
# Tested on: CYP3A4/5
# Experiment: Reversible P450 inhibition in HLM
# Format: biochemical
# Conditions: human, human liver microsomes
# Description: The reversible P450 inhibition assay was conducted in triplicate on a BioCel 1200 System, V11 (Agilent, CA), as previously described by Kosaka, et al.[28] […] […] P450 activity was expressed as the peak area ratio of a P450-specific metabolite formed relative to its internal standard, and inhibition percentage was calculated from P450 activity of samples relative to the solvent control. Inhibition data were processed using Prism (GraphPad Software, San Diego, CA) to calculate IC50 values for each P450 enzyme.
structure (smiles),measurement,setting,value
Cc1ncsc1-c1ccc(C(C)NC(=O)C2CC(O)CN2C(=O)C(c2cc(N3CCC(CN4CCC(OC5CC(Oc6cc(N7C8CCC7CN(c7cc(-c9ccccc9O)nnc7N)C8)ccn6)C5)CC4)CC3)no2)C(C)C)cc1 (centres unmarked) [A947],IC50,"pH 7.4, probe midazolam, substrate Midazolam",0.54 µM
same,IC50,"pH 7.4, probe testosterone, substrate Testosterone",> 10 µM
